The source of these data is patent US10358439B2, “DNA binding agents with a minor groove binding tail” (Board of Regents, The University of Texas System, priority 2015, dated 2019).

Each structure is given as a SMILES string. Read-outs that look alike come from different tables or passages of the source.

Data set [1] concerns D54. As to the kind of experiment: in vitro antitumor activity, D54. The format is cell-based. The following applies: D54 cells.
Data set [2] can be described thus: acute clinically observable toxicity after IV bolus. In kind it is in vivo. The following applies: mice, 10 mg/kg intravenous bolus, up to 24 hours following dosing. The method, then: (§1) Mouse Plasma PK and Brain Distribution Study following Single IV Dose—WP1244 was administered intravenously by rapid IV push to 55 male CD1 mice (Charles River Lab, Wilmington, Mass.) at a dose of 10 mg/kg. Each mouse (mean weight 22.0 g, range 20.7-26.6 g) was given a volume of 0.1 mL of a 2.2 mg/mL WP1244 solution formulated in DMSO:water (50:50, v/v). Five animals were assigned to one of 11 groups segregated by time, spanning the length of the 24-hour study period. One cohort of animals was sacrificed at each of the following time points and mouse plasma and tissues of interest, were harvested for analysis. The time points were as follows: 5, 15, 30, 45 minutes, 1, 2, 4, 6, 8, 12, and 24 hours following administration by intravenous bolus. Samples (plasma and tissues) were frozen and stored at −80° C. until subsequent analysis by LC/MS/MS.

A short description of data set [3]: in vitro IC50, cells not stated. The format is cell-based. As to conditions: cell lines not stated.
Data set [4] deals with Colo357-FG. As to the kind of experiment: in vitro antitumor activity, Colo357-FG. The format is cell-based. As to conditions: Colo357-FG cells.
Data set [5] is described as follows: 5-mice pilot single-dose pharmacokinetic study, plasma and brain. In kind it is in vivo. The following applies: mouse, iv, 5 mg/kg, one hour following a single ~5 mg/kg intravenous dose. The procedure:
WP1244 has a relatively high molecular weight (MW) (981.3) having a polyamide moiety attached to the amino sugar. A previous 5-mice pilot study performed with WP1244 confirmed the presence of WP1244 in murine brain tissue, and mean normalized concentrations in the plasma and brain were 283+/−128 ng/mL (range 159-487 ng/mL) and 122+/−67.6 ng/g (range 43-203 ng/g), respectively, one hour following a single ˜5 mg/kg intravenous dose. This pilot single-dose pharmacokinetic study was followed by a complete single-dose pharmacokinetic/biodistribution study which was designed to better elucidate the plasma time-course and tissue biodistribution, particularly in brain tissue, of WP1244. This study involve the use of 55 animals and a dose of 10 mg/kg. The experiment was conducted over a 24 h interval and the methods and results are outlined below.

Data set [6] can be described thus: Mouse Plasma PK and Brain Distribution Study following Single IV Dose. Also on record: Mean peak plasma concentration / area-under-the-curve: unit not given here. The following applies: mice, 10 mg/kg IV; for Kp / Vd: iv, 10 mg/kg. The format is in vivo, male CD1 mice. The procedure:
as §1
Sample preparation and drug isolation (extraction) from plasma utilized the same fundamental approach used in pharmacokinetic and biodistribution studies of other anthracyclines previously conducted by the inventors. Briefly, WP1244 was extracted from a volume (0.1 mL) of mouse plasma using a solid-phase extraction method. Liquid-liquid extraction by a chloroform: 2-propanol (80:20, v/v) mixture was utilized to isolate the analyte from mouse brain tissue. An 8-point plasma extracted calibration curve was created to span a dynamic concentration range of WP1244 of 1-1000 ng/mL (1, 2.5, 10, 25, 50, 100, 500, and 1000 ng/mL) for the quantitative measurement of WP1244 extracted from mouse plasma, while a brain tissue derived calibration curve was utilized for determination of brain tissue concentrations of drug over a range of 10-1000 ng/g tissue. Samples exceeding the dynamic range of the calibration curve were re-analyzed following dilution in extraction buffers.
Quantitative sample analysis was performed by chromatographic separation and identification/quantification using mass spectrometry (LC/MS/MS); the specific instrumentation used was an Agilent HP1100 Series liquid chromatograph in tandem with a Micromass Quattro Micro (Micro2) mass spectrometer. A Phenomenex® Luna C5, 4.6×50 mm, 3.5 μm) analytical column was used for chromatographic separation and peak resolution. As mentioned before, sample analysis utilized the same fundamental validated methods developed previously for the quantitative analysis of other anthracyclines studied by the inventors.

Data set [7] relates to U87. As to the kind of experiment: in vitro antitumor activity, U87. In kind it is cell-based. As to conditions: U87 (U87-MG brain tumor) cells.
The test system of data set [8] is H441. Nature of the data set: in vitro antitumor activity, H441. In kind it is cell-based. As to conditions: H441 cells.

Turning to `COc1cccc2c1C(=O)c1c(O)c3c(c(O)c1C2=O)C[C@](O)(C(C)=O)C[C@H]3OC1CC(NCc2ccc(NC(=O)c3cc(NC(=O)c4cc(NC(=O)c5ccccn5)cn4C)cn3C)cc2)C(O)C(C)O1` (stereo partly shown) [WP1244], the concentration for half-maximal inhibition (IC50) in data set [1] (Homo sapiens) was 1.08 nM; in data set [4] (COLO 357/FG), 3.1 nM; in data set [7] (Homo sapiens, U-87 MG) it was 0.2 nM; in data set [8] (Homo sapiens, NCI-H441), 0.91 nM. Moreover, the “acute clinically observable toxicity” value in data set [2] is “no acute clinically observable toxicity”. In addition, the “in vitro IC50 values” in data set [3] is listed as “subnanomolar range”. Besides, the concentration at 1 h in data set [5] (brain, read-out: mean normalized concentration in brain) was 122 ng/g; in data set [5] (brain, read-out: range of normalized concentration in brain) it was 43 to 203 ng/g; in data set [5] (plasma, read-out: mean normalized concentration in plasma), 283 ng/mL; in data set [5] (plasma, read-out: range of normalized concentration in plasma) it was 159 to 487 ng/mL. Further, the Kp in data set [6] (male, CD1, mouse, brain, 0 to 8 hour interval, read-out: fold higher concentration in brain tissue than plasma) is 3 to 4; in data set [6] (male, CD1, mouse, brain, over the measured interval (except 5 min timepoint), read-out: brain tissue to plasma concentration ratio), above 1. For the same compound, the concentration at 24 h in data set [6] (male, CD1, mouse, brain, at 24 hours, read-out: nadir brain tissue concentration) was above 100 ng/g; in data set [6] (male, CD1, mouse, plasma, 24 hours after IV bolus injection, read-out: mean nadir plasma concentration), 21.5 ng/mL. In addition, the Vd was 0.0097 L/kg in data set [6] (male, CD1, mouse, plasma, 2-compartment model, read-out: volume of distribution Vc); 0.326 L/kg in data set [6] (male, CD1, mouse, plasma, 2-compartment model, read-out: volume of distribution Vp); 0.336 L/kg in data set [6] (male, CD1, mouse, plasma, 2-compartment model, read-out: volume of distribution Vss). The clearance in data set [6] (male, CD1, mouse, plasma, 2-compartment model, read-out: Drug clearance (converted)) is 0.683 mL/min/kg. In data set [6] (at 15 minutes post dose), the “mean peak concentration in brain tissue” value is listed as 915 ng/g tissue. Moreover, the “Mean peak plasma concentration” value in data set [6] (five minutes after drug administration) is given as 3.7. The compound further had an area-under-the-curve in data set [6] (plasma) of 250. The “time of peak concentration in brain tissue” value in data set [6] (post dose) is 15 min.

With `COc1cccc2c1C(=O)c1c(O)c3c(c(O)c1C2=O)C[C@](O)(C(C)=O)C[C@H]3OC1CC(NCc2ccc(NC(=O)c3cc(NC(=O)c4cc(NC(=O)c5cccn5C)cn4C)cn3C)cc2)C(O)C(C)O1` (stereo in doubt) [WP1243], the IC50 in data set [4] (COLO 357/FG) was 76.2 nM; in data set [7] (Homo sapiens, U-87 MG), 8.3 nM.

For `COc1cccc2c1C(=O)c1c(O)c3c(c(O)c1C2=O)C[C@](O)(C(C)=O)C[C@H]3OC1CC(NCc2ccc(NC(=O)c3cc(NC(=O)c4cc(NC(=O)c5cc([N+](=O)[O-])cn5C)cn4C)cn3C)cc2)C(O)C(C)O1` (stereo in doubt) [WP1276], the IC50 in data set [4] (COLO 357/FG) came to 443 nM; in data set [7] (Homo sapiens, U-87 MG), 27.8 nM.

Take `COc1cccc2c1C(=O)c1c(O)c3c(c(O)c1C2=O)C[C@@](O)(C(C)=O)C[C@H]3OC1CC(NC(=O)c2cc(NC(=O)c3cc(NC(=O)c4cccn4C)cn3C)cn2C)C(O)C(C)O1` (stereo in doubt) [WP1277]: the half-maximal inhibitory concentration (IC50) in data set [4] (COLO 357/FG) is 4240 nM; in data set [7] (Homo sapiens, U-87 MG), 105 nM.

Consider `COc1cccc2c1C(=O)c1c(O)c3c(c(O)c1C2=O)C[C@](O)(C(C)=O)C[C@H]3OC1CC(NCc2ccc(NC(=O)c3cc(NC(=O)c4cc(NC(=O)c5cc(NC=O)cn5C)cn4C)cn3C)cc2)C(O)C(C)O1` (stereo in doubt) [WP1249], for which the half-maximal inhibitory concentration (IC50) in data set [4] (COLO 357/FG) came to 51.2 nM; in data set [7] (Homo sapiens, U-87 MG), 7.7 nM.

With `COc1cccc2c1C(=O)c1c(O)c3c(c(O)c1C2=O)C[C@@](O)(C(C)=O)C[C@@H]3O[C@H]1C[C@H](N)[C@H](O)[C@H](C)O1` [DNR, reference compound], the IC50 in data set [1] is 231 nM; in data set [4], 46.4 nM; in data set [7] it was 143 nM; in data set [8], 15.9 nM.
